The values below are quoted from earlier work in paper PMC6044787 (ACS Omega, 2017).

In this data set the test system is AChE.

For orientation: IC50 means the concentration needed to halve the response being measured. As to `C[n+]1ccc2c(c1)[nH]c1ccc(Cl)cc12` [Compound 8, nostocarboline], the IC50 is 5.3 µM.
